Test systems include A549 NSCLC; COLO 205 colon; HCT-116 colon; HCT-15 colon; HS 578T breast; KM12 colon; LOX IMVI melanoma; M14 melanoma; MOLT-4 leukemia; NCI-H226 lung; OVCAR-8 ovarian; PC-3 prostate; RPMI-8226 leukemia; RXF 393 renal; SF-268 CNS; SF-295 CNS; SK-MEL-5 melanoma; SNB-75 CNS; UACC-62 melanoma; UO-31 renal.
Experiment in all cases: NCI tumour cell line growth inhibition, 48 h

Each structure is given as a SMILES string.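 Growth conditions: 96-well plates. Treatment: test compound, 48 hours, 5 concentrations. Analysis: linear interpolation between bracketing concentrations; unreached endpoints set to highest concentration. TGI: total growth inhibition.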

In the case of `CSc1nnc(SC)nn1`, the TGI turned out to be 43.3 µM in the test on A549 NSCLC; 32.7 µM in the test with COLO 205 colon; 23.9 µM in the test with HCT-116 colon; 35.2 µM with HCT-15 colon; 77.1 µM in the test with HS 578T breast; 30 µM in the test with KM12 colon. The TGI worked out at 38 µM in the test with LOX IMVI melanoma; 28.9 µM in the test with M14 melanoma; 2.37 µM in the test on MOLT-4 leukemia; 96.5 µM in the test with NCI-H226 lung; 35.9 µM in the test with OVCAR-8 ovarian; 33.7 µM with PC-3 prostate. Also, the TGI in the test with RPMI-8226 leukemia stood at 32.7 µM; with RXF 393 renal, 30.3 µM; in the test with SF-268 CNS, 29.4 µM; in the test on SF-295 CNS, 33.9 µM; in the test with SK-MEL-5 melanoma it was 29.6 µM; in the test on SNB-75 CNS, 31.2 µM. Moreover, the TGI was 34 µM in the test on UACC-62 melanoma and 29.5 µM with UO-31 renal.

`O=[N+]([O-])c1ccc(S(=O)(=O)n2c3ccc(Br)cc3c3nc4ccccc4nc32)cc1`: the TGI in the test on A549 NSCLC, with COLO 205 colon, with HCT-116 colon, with HCT-15 colon, with HS 578T breast and with KM12 colon was greater than 100 µM in each case. Moreover, the TGI in the test on LOX IMVI melanoma, in the test with M14 melanoma, with MOLT-4 leukemia, with NCI-H226 lung, in the test with OVCAR-8 ovarian and in the test with PC-3 prostate was greater than 100 µM each time. In addition, the TGI in the test on RPMI-8226 leukemia, with RXF 393 renal, in the test on SF-268 CNS, in the test on SF-295 CNS, in the test on SK-MEL-5 melanoma and in the test on SNB-75 CNS was greater than 100 µM in each case. For the same compound, the TGI in the test on UACC-62 melanoma and in the test with UO-31 renal was greater than 100 µM in each case.

For `Clc1ccc(-c2cc3nc4ccccc4nc3o2)cc1`, the TGI with A549 NSCLC, in the test on COLO 205 colon, with HCT-116 colon, in the test on HCT-15 colon, in the test on HS 578T breast and with KM12 colon was greater than 100 µM throughout. Further, the TGI with LOX IMVI melanoma, with M14 melanoma, in the test with MOLT-4 leukemia, with NCI-H226 lung, in the test with OVCAR-8 ovarian and with PC-3 prostate was greater than 100 µM throughout. The TGI is greater than 100 µM in the test with RPMI-8226 leukemia; 90 µM in the test on RXF 393 renal; greater than 100 µM with SF-268 CNS; greater than 100 µM in the test with SF-295 CNS; greater than 100 µM with SK-MEL-5 melanoma; 48.3 µM in the test on SNB-75 CNS. The TGI in the test with UACC-62 melanoma and in the test on UO-31 renal was greater than 100 µM throughout.

(Values after PubChem BioAssay (NCI).)
